# Measurements as given in US8258099B2, “Pin1-modulating compounds and methods of use thereof” (Max-Planck-Gesellschaft zur Foerderung der Wissenschaften …, priority 2004, dated 2012).
# Like-named read-outs stand apart in the source and are kept apart here. Square brackets hold non-standard residues; d marks the D form. Peptide text beside a SMILES is read from it. * marks the point of attachment. Biotin = O=C1N[C@H]2[C@H](CS[C@H]2CCCCC(=O)*)N1; pT = C[C@@H](OP(=O)(O)O)[C@H](N)C(=O)O; 2Nal = N[C@@H](Cc1ccc2ccccc2c1)C(=O)O; Bta = N[C@@H](Cc1csc2ccccc12)C(=O)O; Pip = O=C(O)[C@@H]1CCCCN1
# Legend:
# hPin1 = target: T1, hPin1 (Homo sapiens, UniProt Q13526); experiment: Protease free PPIase assay, hPin1; format: biochemical
# T1 construct: The protease free assay ensures reliable measurement of IC50 values for the full-length hPin1
# Procedure: Protein concentrations were determined using the extinction coefficient ε280=21030 M^−1 cm^−1 for hPin1, ε280=6979 M^−1 cm^−1 for the hPin1 PPIase domain, ε280=21030 M^−1 cm^−1 for XlPin1, ε280=8250 M^−1 cm^−1 for hPar14 and ε280=8250 M^−1 cm^−1 for hCyp18. Extinction coefficients were calculated using the program ProtParam Tool at ExPASy (SIB, Switzerland). All measurements were done at 10° C. in 35 mM Hepes buffer (pH 7.8).
# The determination of the kinetic constants of the cis/trans isomerization within the protease-free system was performed using fluorescence based measurements (Garcia-Echeverria et al., 1993, Zhang et al., 2002) on a Hitachi F-3010 fluorescence spectrophotometer with H-Abz-Ala-Glu-Pro-Phe-NH-Np (SEQ ID NO: 2) as substrate. The substrate stock solution was 12 mM in anhydrous trifluoroethanol/0.55 M LiCl. Measurements were initiated by addition of the substrate (final concentration 10 μM) to a pre-incubated (15 min) mixture of 8.8 nM hPin1 or 7.1 nM XlPin1 and respective inhibitory peptide of desired concentrations. The excitation wavelength was 320 nm (spectral bandwidth 3 nm) and emission was detected at 420 nm (spectral bandwidth 10 nm).
# Data analysis was performed by single-exponential nonlinear regression using the SigmaPlot Scientific Graphing System Version 5.00 (Jandel Corp.). The apparent first order rate constant kobs was computed by nonlinear regression of the progress curve obtained for the respective measurement. The rate constant k0 was determined in the absence of Pin1. The first order rate constants kenz was calculated from the equation kenz=kobs−k0. IC50 and Ki values were determined by fitting the first order rate constants kenz against the concentration of the inhibitory peptide by nonlinear regression according to Schutkowski et al., 1995 or a model for tight binding inhibitors (Morrison, 1969).
# The protease free assay ensures reliable measurement of IC50 values for the full-length hPin1.
# [1] = Stability against cellular phosphatases and proteases in HeLa cell lysate; format: in vitro ADME; settings: cytoplasmic extracts from HeLa cells, prolonged incubation, MALDI-TOF
# Procedure: FIG. 4 depicts the stability of peptide 17 against cellular phosphatases and proteases. Peptide 17 was incubated for 3 hours in HeLa cell lysate in the absence of phosphatase and protease inhibitors. The mixture was then analyzed by capillary electrophoresis (short dashed line). As controls, the untreated peptide 17 (solid line) and its nonphosphorylated derivative (dotted line) were used. The temperature of the capillary thermostating system was kept at 16° C. Separation buffer was 50 mM sodium phosphate, pH 7.0. Signals were detected at 220 nm.
# Peptide 17 was incubated with HeLa cell lysate for 3 h and analyzed with capillary electrophoresis using UV detection at 220 nm on a P/ACE MDQ (Beckman Coulter, Palo Alto, Calif.) system. Fused-silica capillaries (Polymicro Technologies) of 40 cm length at an operation voltage of 20 kV were used. As references, untreated peptide 17 and its nonphosphorylated derivative were used. The samples were hydrodynamically injected with 3.45 kPa for 10 s. 50 mM sodium phosphate buffer (pH 7.0) was used as separation buffer. The system temperature was kept at 16° C.
# The stability of peptides 15 and 17 in cytoplasmic extracts from HeLa cells was investigated using MALDI-TOF mass spectrometry and capillary electrophoresis, respectively. In the cytosolic incubation mixture, streptavidin sepharose beads served to isolate peptide 15 fragments after prolonged incubation. […] Therefore, phosphopeptides are useless for evaluating Pin1 functions in vivo unless dephosphorylation can be avoided.
# [2] = target: T2, GST-hPin1, GST-hPin1 PPIase and GST-hPin1 WW domain (Homo sapiens, UniProt Q13526); experiment: Far western blot related analysis, hPin1 and its single domains; format: binding; settings: 1 μM peptide 15, 50 μM nonphosphorylated derivative
# T2 construct: made in house
# Procedure: (§1) FIGS. 2A-B depict western blot experiments analyzing the binding of peptide 15 to Pin1. FIG. 2A depicts the binding preferences of the PPIase and WW domain of hPin1 regarding peptide 15. In far western blot related experiments, increasing amounts (from left to right: 1, 5, 10, 52.5, 105 pmol) of GST, GST-hPin1 or its single GST-hPin1 PPIase and GST-hPin1 WW domain were spotted onto nitrocellulose membranes followed by a blocking procedure. The membranes were then incubated with a 1 μM solution of peptide 15 or 50 μM solution of its nonphosphorylated derivative (control). Signals were detected after incubation of the nitrocellulose membranes with horseradish peroxidase-conjugated streptavidin followed by a chemiluminescent reaction using the SuperSignal® substrate. FIG. 2B depicts an analysis of the binding of peptide 15 towards different GST-hPin1 variants. […] Residual PPIase activities of GST-hPin1 and its variants were determined according to Zhou et al., 2000 and/or Yaffe et al., 1997. The PPIase activity of the GST-hPin1 variant Ser16Glu was measured in the protease free PPIase assay.
# GST-hPin1 variants, GST-hPin1 PPIase and GST-hPin1 WW domain were prepared as described previously (Ranganathan et al., 1997, Zhou et al., 2000). […] Specific bound peptide 15 was detected by a chemiluminescent reaction using the SuperSignal® substrate (Pierce).
# [3] = target: T3, GST-hPin1 variant Ser16Glu (Homo sapiens, UniProt Q13526, S16E); experiment: Far western blot related analysis, GST-hPin1 variants; format: binding
# T3 construct: made in house
# Procedure: as §1, with “variants. The indicated amounts of peptide 15 were spotted onto nitrocellulose membranes followed by a blocking procedure and incubation with the respective GST-hPin1 variant.” for “variants.”, “assay. […]” for “assay.”
smiles,measurement,setting,value
"CC(=O)N[C@@H](CCCCNC(=O)CCCC[C@@H]1SC[C@@H]2NC(=O)N[C@@H]21)C(=O)N[C@@H](C)C(=O)N[C@@H](C)C(=O)N[C@@H](Cc1csc2ccccc12)C(=O)N[C@H](C(=O)N1CCCC[C@H]1C(=O)N[C@@H](Cc1ccc2ccccc2c1)C(=O)N[C@@H](CCC(N)=O)C(N)=O)[C@@H](C)OP(=O)(O)O [Peptide 15, Ac-Lys(N^ε-biotinoyl)-Ala-Ala-Bth-Thr(PO3H2)Pip-Nal-Gln-NH2] (Ac-K(Biotin)AA[Bta][pT][Pip][2Nal]Q-NH2)",IC50,"hPin1; blockade of PPIase activity of full-length hPin1, protease free assay, 10° C., read-out: IC50",210 nM
same,IC50,"hPin1; protease free assay, full-length hPin1, read-out: lowest IC50 value",~200 nM
same,phosphothreonine residue in cytosol,[1],completely dephosphorylated
same,sequence integrity in cytosol,[1],sequence integrity was maintained
same,binding to GST-hPin1 and its PPIase and WW domains,[2],binds only to the PPIase domain
same,effect of Ser16Glu substitution in hPin1 on affinity,[3],virtually no effect
